Source: patent publication US20080191170A1, “Use of Ionic Liquids” (CAMBRIDGE UNIVERSITY TECHNICAL SERVICES LIMITED, priority 2004, published 2008)
Read-outs that look alike come from different tables or passages of the source.

Tests used:
[1] = Water miscibility of silyl-protected ionic liquid; type: physicochemical
Method: Dry 3-HOPMIm PF6(2.86 g, 10 mmol) was placed in a round-bottomed flask and dissolved in 50 ml dry THF. Dry trimethylsilyl (TMS) chloride (1.05 g) was added in dry THF solution, dropwise over a period of 30 minutes, with external cooling and stirring, under an atmosphere of dry argon. Stirring was continued for 12 hours.
At the completion of the reaction (TLC), the solvent was removed in vacuo to yield the silyl-protected ionic liquid (3.52 g, 98%), 3-TMSOPMIm PF6.

[2] = Viscosity of ionic liquid (AND Vibro SV10); type: physicochemical; settings: at 25° C.
Method: (§1) Refractive index was measured using a Mettler Toledo Refracto™ 30PX, using a single wavelength light source (the sodium D-line at 589.3 nm). Viscosity was measured using an AND Vibro™ SV10 instrument, which measures viscosity by controlling the amplitude of vibrations of sensor plates submerged in a liquid, detecting changes in the electric current needed to drive the plates.

[3] = Refractive index of ionic liquid (Mettler Toledo Refracto 30PX, sodium D-line 589.3 nm); type: physicochemical; settings: sodium D-line at 589.3 nm
Method: as §1

[4] = Solubility of penicillin G (sodium salt) in ionic liquid solvents; type: physicochemical
[5] = molecular target: T1, morphine dehydrogenase (MDH) (Pseudomonas putida, UniProt Q02198); settings: ionic liquid as medium, cited from earlier work; for Net % codeinone: <100 ppm water, glucose dehydrogenase recycling NADP+
T1 sequence (Q02198 1-296): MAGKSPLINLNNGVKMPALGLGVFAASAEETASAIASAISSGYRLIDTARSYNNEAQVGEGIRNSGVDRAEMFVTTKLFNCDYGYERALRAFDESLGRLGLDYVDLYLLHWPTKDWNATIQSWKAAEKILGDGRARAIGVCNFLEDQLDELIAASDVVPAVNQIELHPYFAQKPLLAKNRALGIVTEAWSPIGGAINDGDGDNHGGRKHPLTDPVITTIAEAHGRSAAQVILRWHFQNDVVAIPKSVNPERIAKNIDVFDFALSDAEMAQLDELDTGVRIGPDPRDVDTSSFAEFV

Cn1cc[n+](CCCO[Si](C)(C)C)c1.F[P-](F)(F)(F)(F)F [3-TMSOPMIm PF6]
miscibility with water [1]: effectively immiscible with water

CC(=O)O.CCCCN(CCO)CCO [Pure n-butyl diethanolammonium acetate, n-butyl diethanolammonium acetate]
Viscosity [2]: ~285 mPa · s
Refractive index [3]: 1.464

CC1(C)S[C@@H]2[C@H](NC(=O)Cc3ccccc3)C(=O)N2[C@H]1C(=O)[O-].[Na+] [penicillin G (sodium salt)]
solubility ([4]; in dimethyl ethanolammonium crotonate/ethanol (25/75 v/v)): ~50 mg/mL
solubility ([4]; in dimethyl ethanolammonium trifluoroacetate/ethanol (25/75 v/v)): 76 mg/mL
solubility ([4]; in pure dimethyl ethanolammonium crotonate): ~20 mg/mL
solubility ([4]; in pure dimethyl ethanolammonium trifluoroacetate): > 275 mg/mL

C[n+]1ccn(CCCO)c1.[Cl-] [HOPMIm Cl, hydroxypropyl methyl imidazolium chloride]
Net % codeinone ([5]; 1 hour): 0%
Net % codeinone ([5]; 4 hours): 0%
Net % codeinone ([5]; 24 hours): Small
MDH activity in the ionic liquid (in words) [5]: very little activity

CCCCn1cc[n+](C)c1.O=C([O-])CO [BMIm glycolate]
Net % codeinone ([5]; 1 hour): 0%
Net % codeinone ([5]; 4 hours): 5%
Net % codeinone ([5]; 24 hours): 12%
MDH activity in the ionic liquid (in words) [5]: greatly improved

C[n+]1ccn(CCCO)c1.O=C([O-])CO [HOPMIm glycolate]
Net % codeinone ([5]; 1 hour): small
Net % codeinone ([5]; 4 hours): 5%
Net % codeinone ([5]; 24 hours): 16%
MDH activity in the ionic liquid (in words) [5]: moderate level of activity

CCCCn1cc[n+](C)c1.F[P-](F)(F)(F)(F)F [BMIm PF6]
Net % codeinone ([5]; 1 hour): 0%
Net % codeinone ([5]; 4 hours): 0%
Net % codeinone ([5]; 24 hours): 2%
MDH activity in the ionic liquid (in words) [5]: extremely low

C[n+]1ccn(CCCO)c1.F[P-](F)(F)(F)(F)F [HOPMIm PF6]
Net % codeinone ([5]; 1 hour): 2%
Net % codeinone ([5]; 4 hours): 9%
Net % codeinone ([5]; 24 hours): 20%
MDH activity in the ionic liquid (in words) [5]: high level

CCCCN(CCO)CCO.O=C(O)C(F)(F)F [n-butyl diethanolammonium trifluoroacetate]
Viscosity [2]: 440 mPa · s
Refractive index [3]: 1.434
